Each structure is given as a SMILES string. Bounds are passed on as bounds.

`O=C1CCCCCCCCCCC(=O)OCCO1`: the melting point (as a rule, the temperature of the solid-liquid transition) worked out at 18 °C.
The value for `O=[N+]([O-])c1ccc(N/N=C2\C=C(c3ccccc3)c3ccccc32)cc1` was 265 to 266 °C; that for `O=C(O)c1ccc2c(c1)C(=O)c1ccccc1-2` was 341 °C; that for `CC(=O)Oc1ccccc1C(C)=O` was 90 °C.
As for `CCC(C)(C)N`, the figure is -105 °C.
As for `CC(C)(C)P(C(C)(C)C)C(C)(C)C`, the figure is 30 °C; as for `CN(N=Cc1ccc(Br)cc1)P(=O)(N1CC1)N1CC1`, 118 °C; as for `C[C@@]1(CO)N[C@H](C(=O)O)CC2c3ccccc3NC21` (stereo partly drawn), 258 to 262 °C.
Regarding `Cc1ccc(CO)cc1C`, the melting point stood at 64 °C.
The value for `CSc1nc(N)nc(-c2cccnc2)n1` was 243 to 254 °C.
The value for `Cc1ccc(C(=O)C2=NOC3C(=O)N(c4ccc(O)cc4)C(=O)C23)cc1` (stereo not drawn) was 120 °C.
As for `O=C1NC(=O)C(Cc2cccc(CC3C(=O)NC(=O)NC3=O)c2)C(=O)N1`, the figure is 272 °C; as for `Cc1cccc2sc3nncn3c12`, 187 °C.
For `COc1cccc(OCc2ccccc2)c1C#N`, the melting point was in the range of 70 to 72 °C.
As for `Cc1ccc(C(c2ccc(C)o2)c2cc(Cl)ccc2O)o1`, the figure is 85 °C.
As for `COC(=O)C(O)C(O)C(=O)OC` (stereo not drawn), the figure is 59 °C.
As for `CCOC(=O)C1=C(CBr)NC(=O)NC1C` (stereo not drawn), the figure is 148 °C.
The molecule `CCOc1nc2ccccc2c(=O)n1Cc1cccnc1` yielded a melting point of 67 to 70 °C.
As for `O=[N+]([O-])c1ccc(-c2nnc3n2CN(c2ccccn2)CS3)cc1`, the figure is above 300 °C; as for `CCCCCCCCCCCCCCCC(=O)NCCO`, 98.5 °C.
The value for `CCOC(=O)c1nn(-c2ccc(C)cc2)c(C)c1C(=O)c1noc(-c2ccccc2)c1S(=O)(=O)c1ccccc1` was 169 °C; that for `CC(C)(C)N(NC(=O)c1ccccc1)C(=O)c1ccccc1` was 178 °C; that for `ClC1CCC(Cl)CC1` (stereo not drawn) was 18 °C.
`c1ccc(P(CCCCCP(c2ccccc2)c2ccccc2)c2ccccc2)cc1`: the melting point amounted to 47 °C.
As for `Brc1n[nH]c(Br)n1`, the figure is 201 °C; as for `Cc1ccc(O)c(C=O)c1`, 56 °C.
As for `O=C(O)C1(c2ccc(Cl)cc2)CCCC1`, the figure is 160 to 164 °C; as for `COc1ccc(OCC(N)=O)cc1`, 114 to 116 °C.
As for `COC(=O)C1Cc2c([nH]c3ccccc23)C(C)(C)N1` (stereo not drawn), the figure is 202 to 204 °C; as for `Cc1ccc(C(=CCN2CCCC2)c2ccccn2)cc1`, 60 °C; as for `CC(=O)Nc1ccc2c(c1)CCC2=O`, 172 °C.
`Clc1ccccc1C(c1ccccc1)(c1ccccc1)n1ccnc1` returned a melting point of 147 °C.
In turn, `FC(F)C(F)(F)OCC(Cn1cncn1)c1ccc(Cl)cc1Cl` (stereo not drawn) showed a melting point of 6 °C.
As for `C=Cc1ccc2c(c1)OCCOCCOCCOCCO2`, the figure is 35 to 43 °C.
As for `O=C(CC(C(=O)c1ccccc1)c1ccccc1)c1ccccc1` (stereo not drawn), the figure is 128 °C; as for `OCc1ccc(-c2ncccn2)cc1`, 76.5 to 77.5 °C.
The value for `Ic1cc(I)c(I)c(I)c1I` was 172 °C.
`CC(C)(C)Oc1ccc(O)cc1`: the melting point amounted to 152 °C.
The value for `Cn1c(=O)c2[nH]c(=O)[nH]c2n(C)c1=O` was 412 to 415 °C; that for `CS(=O)(=O)c1ccc(F)c([N+](=O)[O-])c1` was 152 to 158 °C; that for `CCCCCCCCCCCCCCCC(=O)OCC` was 24 °C.
The value for `O=Cc1ccccc1Cn1cncn1` was 59 °C; that for `COc1cc(OC(F)(F)F)ccc1C#N` was 35 °C; that for `Cn1c(=O)c(C2=NNC(=O)C2=NNc2nccs2)c(O)c2ccccc21` was 301 °C.
As for `O=S(=O)(c1ccccc1)N1CCNCC1`, the figure is 111 to 112 °C.
Consider `CCCCc1c(C)nc(NC(=O)NS(=O)(=O)c2cccs2)nc1Cl`, for which the melting point fell in the range of 188 to 189 °C.
The value for `Cc1cccc2c1ccc1ccccc12` was 123 °C.
Consider `Cc1cc(C(F)(F)F)c2c(N)c(C#N)sc2n1`, for which the melting point is 182 to 184 °C.
For the molecule `O=C1NN(c2ccccc2)C(=O)/C1=C/c1ccccc1`, the melting point amounted to 275 °C.
The value for `CC(=O)/C=C1\NC(=O)c2ccccc21` was 108 °C; that for `CCCCCCOC(=O)CCCC` was -63.1 °C; that for `CCCCc1ccc(/N=N/c2ccc(OC(=O)CC)cc2)cc1` was 84 to 87 °C.
For the molecule `CCCCCC(=O)OC1(C(C)=O)CCC2C3CCC4=CC(=O)CCC4C3CCC21C` (stereo not drawn), the melting point is 124 °C.
The value for `COc1c(OC)c(OC(C)=O)c2cc(F)ccc2c1OC(C)=O` was 102 °C; that for `CC1(C)C(=O)N(O)C(C)(C)C(=O)N1O` was 300 to 303 °C.
As for `Cc1cc(C)n(-c2ccc(C(=O)O)cc2)n1`, the figure is 163 °C.
As for `CC(=O)c1ccc(C2CCCCC2)cc1`, the figure is 68 °C; as for `CN(C)c1ccc(C2Nc3nc(C(F)(F)F)nn3C(N)=C2C#N)cc1` (stereo not drawn), 164 °C; as for `Cc1ccc(S(=O)(=O)OCC2CCC(=O)N2)cc1` (stereo not drawn), 122 to 129 °C.
For `Nc1c(Cl)cc(C(F)(F)F)cc1Cl`, the melting point was 36 °C.
In turn, `COc1cc(C(=O)N2CCOCC2)cc(OC)c1OC` displayed a melting point of 121 °C.
As for `CC1=C(C(=O)O)CCC1(C)C`, the melting point was 135 °C.
As for `NCCP(=O)(O)O`, the figure is 296 °C.
`NC(=O)C(CO)NC(=O)OCC1c2ccccc2-c2ccccc21` (stereo not drawn) showed a melting point of 155 °C.
Consider `Ic1cc(I)c(I)c(I)c1`, for which the melting point was found to be 148 °C.
As for `c1cc(OCC2CO2)cc(OCC2CO2)c1` (stereo not drawn), the figure is 42.5 °C.
In turn, `CCOc1ccc(-c2nnc3n2NC(c2ccccc2OC)S3)cc1` (stereo not drawn) gave a melting point of 194 °C.
As for `O=C(O)c1cccnc1N1CCOCC1`, the figure is 129 to 133 °C; as for `Cn1ccc(-c2ccc(N=C=O)cc2)n1`, 67 to 70 °C; as for `N#CC1=C(N)n2nc(C(F)(F)F)nc2NC1c1ccco1` (stereo not drawn), 260 °C.
The value for `NC(=S)C(N)=S` was 170 °C.
For `Cc1ccc(S(=O)(=O)OCC#N)cc1`, the melting point was in the range of 50 to 51 °C.
The value for `CC1CCC2(O)C(C)(C)C3CCC2(C)C1C3` (stereo not drawn) was 56 °C; that for `C=CC(=O)NC(C)C` was 64 °C.
The value for `CCCCCCCCCCCCCCCCC1CCCCC1` was 33.6 °C; that for `O=C(O)Cc1ccccc1[N+](=O)[O-]` was 141 °C; that for `FC(F)(F)c1ccc(Br)cn1` was 40 °C.
As for `O=[N+]([O-])c1cccc([N+](=O)[O-])c1CO`, the figure is 85 to 95 °C; as for `C=C(C)CNc1ccc(C(C)C(=O)O)cc1` (stereo not drawn), 107 °C.
Turning to `CC(C)(C)NCC(O)COc1cc(Cl)ccc1Cl` (stereo not drawn), the melting point is 82 °C.
The value for `Cc1ccc(C=C2C(=O)OC(C)(C)OC2=O)o1` was 93 °C; that for `O=C(O)Cc1ccc(O)c([N+](=O)[O-])c1` was 147 °C; that for `Cc1nnc2sc(SCC(=O)O)nn2c1=O` was 201 °C.
`Oc1cc(Br)ccc1Cl` displayed a melting point of 57 °C.
As for `CCCCCN`, the figure is -50 °C; as for `COc1ccc(-c2cc3c(C#N)c(N)[nH]n3c(=O)c2C#N)cc1`, 297 °C; as for `CC(=O)OC1OC(=O)c2ccccc21` (stereo not drawn), 71 °C.
As for `CC(C)(C)C1=CC(=O)C(C(C)(C)C)=CC1=O`, the figure is 153 °C.
`O=C(O)CCn1ccnc1` gave a melting point of 147 to 149 °C.
The value for `Cc1ccc(C(=O)/C=C/c2ccc(Br)o2)o1` was 69 °C; that for `O=C(O)C(O)c1cc(F)cc(F)c1` (stereo not drawn) was 136 °C; that for `NNC(=S)Nc1cccc(Cl)c1` was 132 °C.
Take `O=Cc1ccc2ccc3cccc4ccc1c2c34`: the melting point was 127 °C.
For `NC(=O)c1cc(O)c(O)c(O)c1`, the melting point lay within 240 to 243 °C.
The value for `CC(C)C12CCC(C)(O1)C(=O)OC2=O` (stereo not drawn) was 109 °C; that for `CCOC(=O)c1c(Cl)cc(C)nc1Cl` was 53 to 57 °C.
The value for `Nc1ccc(F)cc1N` was 86 to 88 °C.
For `COc1ccc(N(CCCC(=O)O)C(=O)c2ccc(Cl)cc2)cc1`, the melting point amounted to 116 °C.
As for `CC(=O)C1(O)CCC2C3CCC4=CC(=O)CCC4(C)C3CCC21C` (stereo not drawn), the figure is 222 °C; as for `O=C1c2ccccc2C(=O)N1CBr`, 149 to 154 °C.
`O=C(O)CCCCCCCC(O)C(O)CCCCCCO` (stereo not drawn) returned a melting point of 100 °C.
`Cn1ncc(Br)c1NC(=O)CCl`: the melting point is 137 to 139 °C.
As for `O=C(CBr)c1ccc(Oc2ccccc2)cc1`, the figure is 49 to 50 °C; as for `CCN(CC)CCCN(c1ccccc1)C1Cc2ccccc2C1`, 120 °C; as for `Sc1ccc(S)cc1`, 97 °C.
Take `O=C(NC(=O)c1ccccc1Cl)Nc1ccc(OC(F)(F)F)cc1`: the melting point was 195 °C.
The molecule `C1CCC(CCCCC2CCCCC2)CC1` yielded a melting point of 12 °C.
The value for `Cc1ccc(N=C(CNc2ccc(C)cc2)Nc2ccc(C)cc2)cc1` was 136 °C.
As for `O=C(CC1(O)Cc2ccccc21)c1ccccc1` (stereo not drawn), the melting point lay in the range of 83 to 83.5 °C.
As for `Fc1cccc(F)c1CCl`, the figure is 34 °C; as for `COc1ccc(Oc2ncccc2[N+](=O)[O-])cc1`, 95 to 101 °C.
Molecule `O=c1[nH]cnc2c1ncn2C1CC(O)C(CO)O1` (stereo not drawn) displayed a melting point of 250 °C.
The value for `Cc1nc2ccc(-c3ccccc3)cc2s1` was 90 to 95 °C.

The values above are taken from a melting point compilation (Tetko et al.).
